Assay [1] addresses T1, BTK enzyme (recombinant full-length BTK, hBTK) (Homo sapiens, UniProt Q06187).
T1 construct: recombinant protein from baculovirus-transfected Sf9 cells: full-length BTK, 6HIS-tag cleaved; 6HIS (cleaved yes); made in house; host or cells: baculovirus-transfected Sf9 cells
Briefly: BTK enzyme activity assay, LANCE TR-FRET. Format: biochemical. The following applies: 50 pM hBTK, 2 μM biotin-A5-peptide, 25 μM ATP; 60 min compound & enzyme incubation; read-out: IC50 BTK activity value. Background: In TR-FRET formats the signal depends on donor and acceptor labels being close together.

A further assay relates to HeLa cells. Briefly: [3H]Adenosine uptake functional cellular assay. Format: cell-based. The following applies: Homo sapiens, HeLa, accumulation of [3H]adenosine into HeLa cells; compound range 10 μM to […]; read-out: Adenosine uptake inhibition IC50. As to the method: Compounds are also screened in an adenosine uptake functional cellular assay using the protocol described below. The adenosine uptake inhibition assay may be used to identify compounds with the potential for a negative cardiovascular side effect.
Adenosine uptake activity was determined by monitoring the accumulation of tritiated adenosine into HeLa cells (ATCC catalog # CCL-2) using a PMT-based radiometric detection instrument. […] These cells were incubated overnight at 37° C. in a humidified atmosphere with 5% (v/v) CO2. After this time the growth medium was removed and replaced with 40 μL assay medium comprising: Hanks balanced salts solution (HBSS; Thermo Fisher Catalog # SH30268.01)+5% (v/v) FBS. […] 40 μL of compound in the assay medium was dispensed into individual wells of the Cytostar-T plates and the plates were incubated for 30 minutes under ambient laboratory conditions. Following this incubation, 20 μL of 500 nM [^3H]adenosine (American Radiolabeled Chemicals Inc. Catalog # ART0287) was added in the assay medium and incubated for a further 60 minutes under ambient laboratory conditions. The amount of radiolabel accumulation was then determined using a Perkin Elmer Topcount NXT microplate reader. In brief, HeLa cells adhere to the bottom of the Cytostar-T plate, uptake of [^3H]adenosine into these cells brings the radiolabel into sufficient proximity to excite the scintillant in the base of the plates. These events are captured by single PMT, time-resolved coincidence counting. IC50 values were determined by 4 parameter robust fit of counts per second values vs. (Log10) compound concentrations.

T1 sequence (Q06187 whole entry): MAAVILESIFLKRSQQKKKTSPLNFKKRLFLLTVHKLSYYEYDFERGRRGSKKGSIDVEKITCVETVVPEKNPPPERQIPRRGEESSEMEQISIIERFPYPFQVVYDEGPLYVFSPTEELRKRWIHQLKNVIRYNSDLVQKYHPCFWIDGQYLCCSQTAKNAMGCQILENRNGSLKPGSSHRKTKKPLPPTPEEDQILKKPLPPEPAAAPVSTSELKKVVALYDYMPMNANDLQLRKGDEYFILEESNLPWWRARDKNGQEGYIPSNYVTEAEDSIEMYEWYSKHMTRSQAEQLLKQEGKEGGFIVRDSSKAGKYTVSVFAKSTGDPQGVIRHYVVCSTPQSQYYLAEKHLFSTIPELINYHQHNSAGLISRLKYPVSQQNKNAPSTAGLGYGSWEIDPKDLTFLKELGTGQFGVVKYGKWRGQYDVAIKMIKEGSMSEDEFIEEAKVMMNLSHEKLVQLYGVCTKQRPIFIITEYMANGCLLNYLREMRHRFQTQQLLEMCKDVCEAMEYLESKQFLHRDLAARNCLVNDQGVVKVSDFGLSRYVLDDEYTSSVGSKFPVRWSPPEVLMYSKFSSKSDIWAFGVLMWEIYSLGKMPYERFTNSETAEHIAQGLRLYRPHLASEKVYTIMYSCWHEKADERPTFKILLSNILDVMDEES

Broadly, the IC50 is the concentration at which inhibition is half-maximal. Take `Nc1nccn2c([C@@H]3CC[C@H]4CNCC(=O)N4C3)nc(-c3ccc(C(=O)Nc4cc(C(F)(F)F)ccn4)cc3)c12` [Example 40, 4-{8-amino-3-[(7R,9aS)-4-oxooctahydro-2H-pyrido[1,2-a]pyrazin-7-yl]imidazo[1,5-a]pyrazin-1-yl}-N-[4-(trifluoromethyl)pyridin-2-yl]benzamide]: the figures for the IC50 (in assay [1]; in the assay on HeLa cells) were 0.22 nM and 186 nM, respectively.

Regarding `Nc1nccn2c([C@H]3CC[C@@H]4CNCC(=O)N4C3)nc(-c3ccc(C(=O)Nc4cc(C(F)(F)F)ccn4)cc3)c12` [Example 41, 4-{8-amino-3-[(7S,9aR)-4-oxooctahydro-2H-pyrido[1,2-a]pyrazin-7-yl]imidazo[1,5-a]pyrazin-1-yl}-N-[4-(trifluoromethyl)pyridin-2-yl]benzamide], the IC50 is 4 nM in assay [1] and 793 nM in the assay on HeLa cells.

For the compound `Nc1nccn2c([C@@H]3CC[C@H]4CCC(=O)N4C3)nc(-c3ccc(C(=O)Nc4cc(C(F)(F)F)ccn4)c(Cl)c3)c12` [Example 42, 4-{8-amino-3-[(6R,8aS)-3-oxooctahydroindolizin-6-yl]imidazo[1,5-a]pyrazin-1-yl}-2-chloro-N-[4-(trifluoromethyl)pyridin-2-yl]benzamide], the IC50 amounted to 0.52 nM in assay [1] and 88 nM in the assay with HeLa cells.

`Nc1nccn2c([C@H]3CC[C@@H]4CCCC(=O)N4C3)nc(-c3ccc(C(=O)Nc4cc(C(F)(F)F)ccn4)cc3F)c12` [Example 44, 4-{8-amino-3-[(3S,9aS)-6-oxooctahydro-2H-quinolizin-3-yl]imidazo[1,5-a]pyrazin-1-yl}-3-fluoro-N-[4-(trifluoromethyl)pyridin-2-yl]benzamide]: the IC50 was 0.095 nM in assay [1] and 88.8 nM in the assay on HeLa cells.

Turning to `Nc1nccn2c([C@@H]3CC[C@H]4CCCC(=O)N4C3)nc(-c3ccc(C(=O)Nc4cc(C(F)(F)F)ccn4)cc3F)c12` [Example 45, 4-{8-amino-3-[(3R,9aR)-6-oxooctahydro-2H-quinolizin-3-yl]imidazo[1,5-a]pyrazin-1-yl}-3-fluoro-N-[4-(trifluoromethyl)pyridin-2-yl]benzamide], the IC50 was 1.7 nM in assay [1] and 227 nM with HeLa cells.

For `C[C@@H]1OC(=O)N2C[C@H](c3nc(-c4ccc(C(=O)Nc5cc(C6CC6)ccn5)cc4)c4c(N)nccn34)CC[C@@H]12` [Example 46, 4-{8-amino-3-[(1S,6R,8aS)-1-methyl-3-oxohexahydro[1,3]oxazolo[3,4-a]pyridin-6-yl]imidazo[1,5-a]pyrazin-1-yl}-N-(4-cyclopropylpyridin-2-yl)benzamide], the IC50 came out at 0.53 nM in assay [1] and 71.3 nM in the assay with HeLa cells.

`C[C@H]1OC(=O)N2C[C@H](c3nc(-c4ccc(C(=O)Nc5cc(C6CC6)ccn5)cc4)c4c(N)nccn34)CC[C@@H]12` [Example 47, 4-{8-amino-3-[(1R,6R,8aS)-1-methyl-3-oxohexahydro[1,3]oxazolo[3,4-a]pyridin-6-yl]imidazo[1,5-a]pyrazin-1-yl}-N-(4-cyclopropylpyridin-2-yl)benzamide]: the IC50 is 0.17 nM in assay [1] and 31.8 nM in the assay with HeLa cells.

Regarding `C[C@@H]1OC(=O)N2C[C@H](c3nc(-c4ccc(C(=O)Nc5cc(C(F)(F)F)ccn5)cc4)c4c(N)nccn34)CC[C@@H]12` [Example 48, 4-{8-amino-3-[(1S,6R,8aS)-1-methyl-3-oxohexahydro[1,3]oxazolo[3,4-a]pyridin-6-yl]imidazo[1,5-a]pyrazin-1-yl}-N-[4-(trifluoromethyl)pyridin-2-yl]benzamide], the IC50 in assay [1] is 0.14 nM; with HeLa cells it was 92.6 nM.

For the compound `C[C@H]1OC(=O)N2C[C@H](c3nc(-c4ccc(C(=O)Nc5cc(C(F)(F)F)ccn5)cc4)c4c(N)nccn34)CC[C@@H]12` [Example 49, 4-{8-amino-3-[(1R,6R,8aS)-1-methyl-3-oxohexahydro[1,3]oxazolo[3,4-a]pyridin-6-yl]imidazo[1,5-a]pyrazin-1-yl}-N-[4-(trifluoromethyl)pyridin-2-yl]benzamide], the 50% inhibitory concentration (IC50) stood at 0.11 nM in assay [1] and 51.8 nM with HeLa cells.

Values taken from patent US20140206681A1, “BTK INHIBITORS” (priority 2013, published 2014).
